Assays:
[1] = test system: embryonic neuronal cultures of the American cockroach Periplaneta americana; experiment: Fluorescence imaging ratiometric assay; type: cell-based; settings: Fluo-4 AM loaded neuronal cells
Text: Embryonic neuronal cultures of the American cockroach Periplaneta americana were established following the method of Beadle and Lees (See Beadle D. J. and Lees G., Chapter 5 in Cell Culture Approaches to Invertebrate Neuroscience, Beadle, D. J., Lees, G. and Kater, S. B. (eds.) Academic Press, New York 1988) with minor modification. Briefly, 24-day old oothecae were collected, surface-sterilized and cut open one third below the dorsal midline. The heads were then removed and placed in Schneider's Drosophila medium. Using fine forceps 32 brains were individually removed and placed in a small glass vial containing 790 μl of ‘5+4’ medium. […]
Cells were rinsed in standard physiological saline having the following composition (mM): NaCl 190; CaCl2 9; KCl 3.1; probenicid 1; Tris buffer 10; pH 7.2. […] Individual wells from the 96-well plate were sequentially excited with light at 495 nm and the emitted fluorescence at 530 nm detected using a Hamamatsu ORCA ER digital camera.
Acquisition control, image processing and image analysis were conducted using Universal Imaging Corporation's MetaMorph™ imaging software. […] Individual cells were separated and identified based on meeting designated morphometric criteria for total size and shape as previously determined experimentally for this cell type. […]

[2] = test system: corn plant hopper Perigrinus maidis; experiment: Screening of Androctonus amoreuxi venom fractions for Homopteran activity; type: in vivo; settings: HPLC fractions of venom
Procedure: This assay can be used for a variety of homopterans including, but not limited to, Myzus persicae and Perigrinus maidis. The assay involves trapping the sample between two layers of maximally stretched parafilm which act as a sachet on top of a small vessel containing the insect of choice.
The assay was prepared as follows: 1 cm diameter polystyrene tubing was cut into 15 mm lengths. One end of the tube was then capped with a fine mesh screen. Five insects were then added to the chamber after which the first layer of parafilm was stretched over the remaining open end. 25 μl of sample (polypeptide in a 5% sucrose solution containing McCormick green food coloring) was then placed on top of the stretched parafilm. A second layer of parafilm was then stretched by hand and placed over the sample. […] The assay tubes were monitored for insect reproduction and death on a 24 hour basis and compared to a 5% sucrose control.
Initial screening of five minute fractions of the venom from Androctonus amoreuxi indicated activity against the corn plant hopper Perigrinus maidis. […] Sufficient quantities of this purified protein were collected to allow confirmation of activity and to initiate protein sequencing by Edmund degradation as described in Example 2. The mature sequence was determined to be that indicated in SEQ ID NO:20. […]

[3] = test system: Myzus persicae (Green Peach Aphid); experiment: Aphid bioassay on transgenic Arabidopsis thaliana events; type: in vivo; settings: 35S promoter, versus controls
Text: cDNAs encoding potential sodium channel neurotoxins were identified from sequence data derived from a cDNA library of Centruroides vittatus telsons. […] Full length genes were PCR amplified with oligonucleotide primers introducing restriction enzyme sites at the 5′ and 3′ ends of the gene. The PCR products were TOPO-cloned into pCR2.1 (Invitrogen Co.) and the sequence was confirmed. The resulting constructs were then cloned into a binary vector between the Cauliflower mosaic virus 35S promoter and the NOS termination signal. The binary vector also contained a selection marker cassette including the Cauliflower mosaic 35S promoter, the BAR gene, and NOS terminator.
Binary constructs were electroporated into Agrobacterium tumefaciens strain C58. Transformed Agrobacterium cultures were grown in YM media for 2 days at 28° C. to an OD600 of approximately 1.0. Cells were pelleted by centrifugation and resuspended at the original culture volume in 5% sucrose with 0.05% Silwet L-77. The Agrobacterium slurry was sprinkled onto the inflorescences of flowering Arabidopsis thaliana (Landberg) plants using a 10-25 ml pipette. […]
Bioassays were performed on individual transformation events enclosed within plastic tubes with a fine mesh screen at the top to confine the aphids. […] Plants were scored for total number of adult aphids and nymphs at various intervals post infestation.

Molecule | changes in Fluo-4 fluorescence (intracellular free calcium) [1] | activity against the corn plant hopper Perigrinus maidis (Homopteran activity) [2] | aphid resistance (total number of adult aphids and nymphs) [3]
Aam1 (ADVPGNYPLDSSDNTYLCAPLGDNPDCIKICQKHGVDYGYCYAFQCWCEFLKDENVKV) | changes in fluorescence characteristic of a sodium channel agonist | Homopteran activity was then found to be associated | 
Ts7: polypeptide set forth in SEQ ID NO:22 and 24, identified from a Centruroides vittatus telsons cDNA library (protein) chain 1: MKFFLIVSLAIMSCFMEMKEVYAGTKGNFPVDFQGIFYECIVYNRCERDCKLHGSSYGYCYAGVCYCEGLADEDKYFLGM chain 2: GTKGNFPVDFQGIFYECIVYNRCERDCKLHGSSYGYCYAGVCYCEGLADEDKYFLGM |  |  | greater degree of aphid resistance than controls

— patent publication US7414173B1, “Isolated nucleic acid molecules encoding orally active androctonus amoreuxi pesticidal biopeptides” (E.I. du Pont de Nemours and Company, priority 2002, dated 2008)
